Measurements taken from patent US10329296B2, “Indole derivatives” (Richter Gedeon Nyrt., priority 2015, dated 2019).
Counter-ions that a name gives are not always drawn.

target: human MCH1 receptor (Homo sapiens, UniProt Q99705); assay: MCHR1 antagonism functional assay, measuring cytoplasmic calcium concentration ([Ca2+]i);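 also: human MCH1 AequoScreen cells loaded with calcium-sensitive fluorescent dye, compounds preincubated one hour, then MCH given at its EC80, inhibition of ΔF/F rise relative to DMSO vehicle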
Method: Evaluation of MCHR1 Antagonism in Functional Assay
Cells: human MCH1 (SLC1) AequoScreen® Cell Line (Perkin Elmer ES-370-A, lot No: M4W-A2)
MCH was dissolved in MilliQ water (1 mM), aliquots were taken from the stock solution, and were kept at −20° C. One aliquot was used only once.
Assay buffer: HBSS+2 mM probenecid, pH=7.4
Measuring of Cytoplasmic Calcium Concentration ([Ca^2+]i):
On the day of measurement the culture medium was removed from the cells and a fluorescent Ca^2+-sensitive dye (FLIPR Calcium 5 kit, Molecular Devices R8186) was added to the cells at a 4× dilution compared to the recommended dilution by the manufacturer, in a volume of 100 μl/well, and cells were incubated at 37° C. for 10 min. […] The vehicle (DMSO, control treatment), or the buffer containing test compounds were added to the cells in a volume of 50 μl/well, and cells were incubated at 37° C. for further 60 min.
1 mM stock solution was made from the agonist in distilled water, this solution was distributed into aliquots, which were kept at −20° C. until use. One aliquot was used only once. Fluorescence was detected before addition of MCH for 20 s, and after addition of MCH for 40 s. MCH was applied at an EC80 concentration, the EC80-values were determined individually for every plate/experiment. For this whole MCH dose-response curves were determined on one part of the plate, 4 parameter sigmoidal curves were fitted to the experimental data by nonlinear regression, MCH EC80 values were derived from the fitted curve. The raw fluorescence data were converted into ΔF/F values (the maximum fluorescence value obtained after addition of MCH was normalized to the baseline fluorescence: ΔF/F=(Fmax−Fbaseline)/Fbaseline). […] IC50 values of the tested compounds were determined by fitting 4 parameter sigmoidal curves to inhibition % data. Data processing, including fitting curves by nonlinear regression, was done by SoftMaxPro software.

| Compound | IC50 |
| --- | --- |
| Cc1c2n(c3ccc(-n4ccc(OCc5ccc(Cl)cn5)cc4=O)cc13)CCN(C(C)C)CC2 [Example 34, 4-[(5-chloropyridin-2-yl)methoxy]-1-[11-methyl-3-(propan-2-yl)-1H,2H,3H,4H,5H-[1,4]diazepino[1,7-a]indol-9-yl]-1,2-dihydropyridin-2-one maleic acid salt] | 14.3 nM |
| CC(C)N1CCc2c(Cl)c3cc(-n4ccc(OCc5ccccc5)cc4=O)ccc3n2CC1 [Example 27, 4-(benzyloxy)-1-[11-chloro-3-(propan-2-yl)-1H,2H,3H,4H,5H-[1,4]diazepino[1,7-a]indol-9-yl]-1,2-dihydropyridin-2-one hydrochloride salt] | 29.9 nM |
| O=c1cc(OCc2ccccc2)ccn1-c1ccc2c(c1)cc1n2CCN(C2CC2)CC1 [Example 29, 4-(benzyloxy)-1-{3-cyclopropyl-1H,2H,3H,4H,5H-[1,4]diazepino[1,7-a]indol-9-yl}-1,2-dihydropyridin-2-one maleic acid salt] | 12.9 nM |
| CC(=O)N1CCc2cc3cc(-n4ccc(OCc5ccc(Cl)cn5)cc4=O)ccc3n2CC1 [Example 17, 1-{3-acetyl-1H,2H,3H,4H,5H-[1,4]diazepino[1,7-a]indol-9-yl}-4-[(5-chloropyridin-2-yl)methoxy]-1,2-dihydropyridin-2-one] | 18.9 nM |
| O=c1cc(OCc2ccc(Cl)cn2)ccn1-c1ccc2c(c1)cc1n2CCN(CCF)CC1 | 10 nM |
| CC(C)N1CCc2cc3cc(-n4ccc(OCc5ccc(F)cc5)cc4=O)ccc3n2CC1 [Example 21, 4-[(4-fluorophenyl)methoxy]-1-[3-(propan-2-yl)-1H,2H,3H,4H,5H-[1,4]diazepino[1,7-a]indol-9-yl]-1,2-dihydropyridin-2-one] | 8 nM |
| CC(C)N1CCc2cc3cc(-n4ccc(OCc5ccc(Cl)cc5)cc4=O)ccc3n2CC1 [Example 22, 4-[(4-chlorophenyl)methoxy]-1-[3-(propan-2-yl)-1H,2H,3H,4H,5H-[1,4]diazepino[1,7-a]indol-9-yl]-1,2-dihydropyridin-2-one maleic acid salt] | 7.2 nM |
| CC(C)N1CCc2c(I)c3cc(-n4ccc(OCc5ccc(Cl)cn5)cc4=O)ccc3n2CC1 [Example 26, 4-[(5-chloropyridin-2-yl)methoxy]-1-[11-iodo-3-(propan-2-yl)-1H,2H,3H,4H,5H-[1,4]diazepino[1,7-a]indol-9-yl]-1,2-dihydropyridin-2-one maleic acid salt] | 38.8 nM |
| O=c1cc(OCc2ccccc2)ccn1-c1ccc2c(c1)cc1n2CCNCC1 [Example 3, 4-(benzyloxy)-1-{1H,2H,3H,4H,5H-[1,4]diazepino[1,7-a]indol-9-yl}-1,2-dihydropyridin-2-one maleic acid salt] | 17.7 nM |
| O=c1cc(OCc2ccc(Cl)cn2)ccn1-c1ccc2c(c1)cc1n2CCNCC1 [Example 4, 4-[(5-chloropyridin-2-yl)methoxy]-1-{1H,2H,3H,4H,5H-[1,4]diazepino[1,7-a]indol-9-yl}-1,2-dihydropyridin-2-one dihydrochloride salt] | 9.8 nM |
| CC(C)N1CCc2cc3cc(-n4ccc(OCc5ccccc5)cc4=O)ccc3n2CC1 [Example 19, 4-(benzyloxy)-1-[3-(propan-2-yl)-1H,2H,3H,4H,5H-[1,4]diazepino[1,7-a]indol-9-yl]-1,2-dihydropyridin-2-one hydrochloride salt] | 8.2 nM |
| O=c1cc(OCc2ccc(F)cc2)ccn1-c1ccc2c(c1)cc1n2CCNCC1 [Example 5, 1-{1H,2H,3H,4H,5H-[1,4]diazepino[1,7-a]indol-9-yl}-4-[(4-fluorophenyl)methoxy]-1,2-dihydropyridin-2-one hydrochloride salt] | 12 nM |
| CCN1CCc2cc3cc(-n4ccc(OCc5ccc(F)cc5)cc4=O)ccc3n2CC1 [Example 16, 1-{3-ethyl-1H,2H,3H,4H,5H-[1,4]diazepino[1,7-a]indol-9-yl}-4-[(4-fluorophenyl)methoxy]-1,2-dihydropyridin-2-one] | 7.2 nM |
| O=c1cc(OCc2ccc(Cl)cc2)ccn1-c1ccc2c(c1)cc1n2CCNCC1 [Example 6, 4-[(4-chlorophenyl)methoxy]-1-{1H,2H,3H,4H,5H-[1,4]diazepino[1,7-a]indol-9-yl}-1,2-dihydropyridin-2-one hydrochloride salt] | 11.9 nM |
| O=c1cc(OCc2ccc(Cl)cn2)ccn1-c1ccc2c(c1)c(Cl)c1n2CCN(CCF)CC1 | 15.5 nM |
| O=c1cc(OCc2ccc(Cl)cn2)ccn1-c1ccc2c(c1)cc1n2CCN(C2CCC2)CC1 [Example 31, 4-[(5-chloropyridin-2-yl)methoxy]-1-(3-cyclobutyl-1H,2H,3H,4H,5H-[1,4]diazepino[1,7-a]indol-9-yl)-1,2-dihydropyridin-2-one maleic acid salt] | 12.3 nM |
| CC(C)N1CCc2cc3cc(-n4ccc(OCc5ccccc5F)cc4=O)ccc3n2CC1 [Example 23, 4-[(2-fluorophenyl)methoxy]-1-[3-(propan-2-yl)-1H,2H,3H,4H,5H-[1,4]diazepino[1,7-a]indol-9-yl]-1,2-dihydropyridin-2-one hydrochloride salt] | 15.7 nM |

| Compound | IC50 |
| --- | --- |
| O=c1cc(OCc2ccccc2F)ccn1-c1ccc2c(c1)cc1n2CCNCC1 [Example 7, 1-{1H,2H,3H,4H,5H-[1,4]diazepino[1,7-a]indol-9-yl}-4-[(2-fluorphenyl)methoxy]-1,2-dihydropyridin-2-one hydrochloride salt] | 27.7 nM |
| CC(C)N1CCc2cc3cc(-n4ccc(OCc5ccc(Cl)cn5)cc4=O)ccc3n2CC1 [Example 20, 4-[(5-chloropyridin-2-yl)methoxy]-1-[3-(propan-2-yl)-1H,2H,3H,4H,5H-[1,4]diazepino[1,7-a]indol-9-yl]-1,2-dihydropyridin-2-one maleic acid salt] | 6.2 nM |
| CCN1CCc2cc3cc(-n4ccc(OCc5ccc(Cl)cn5)cc4=O)ccc3n2CC1 [Example 15, 4-[(5-chloropyridin-2-yl)methoxy]-1-{3-etil-1H,2H,3H,4H,5H-[1,4]diazepino[1,7-a]indol-9-yl}-1,2-dihydropyridin-2-one] | 6.5 nM |
| COc1ccc(COc2ccn(-c3ccc4c(c3)cc3n4CCNCC3)c(=O)c2)cc1 [Example 2, 1-{1H,2H,3H,4H,5H-[1.4]diazepino[1,7-a]indol-9-yl}-4-[(4-methoxyphenyl)-methoxy]-1,2-dihydropyridin-2-one hydrochloride salt] | 32.9 nM |
| CN1CCc2cc3cc(-n4ccc(OCc5ccc(Cl)cc5)cc4=O)ccc3n2CC1 [Example 12, 4-[(4-chlorophenol)methoxy]-1-{3-methyl-1H,2H,3H,4H,5H-[1,4]diazepino[1,7-a]indol-9-yl}-1,2-dihydropyridin-2-one maleic acid salt] | 9 nM |
| CC(C)N1CCc2c(Cl)c3cc(-n4ccc(OCc5ccc(Cl)cn5)cc4=O)ccc3n2CC1 [Example 24, 1-[11-chloro-3-(propan-2-yl)-1H,2H,3H,4H,5H-[1,4]diazepino[1,7-a]indol-9-yl]-4-[(5-chloropyridin-2-yl)methoxy]-1,2-dihydropyridin-2-one maleic acid salt] | 18.5 nM |
| CN1CCc2cc3cc(-n4ccc(OCc5ccc(Cl)cn5)cc4=O)ccc3n2CC1 [Example 11, 4-[(5-chloropyridin-2-yl)methoxy]-1-{3-methyl-1H,2H,3H,4H,5H-[1,4]diazepino[1,7-a]indol-9-yl}-1,2-dihydropyridin-2-one] | 9.6 nM |
| CC(C)N1CCc2cc3cc(-n4ccc(OCc5ccc(F)cn5)cc4=O)ccc3n2CC1 [Example 18, 4-[(5-fluoropyridin-2-yl)methoxy]-1-[3-(propan-2-yl)-1H,2H,3H,4H,5H-[1,4]diazepino[1,7-a]indol-9-yl]-1,2-dihydropyridin-2-one maleic acid salt] | 15.2 nM |
| CCN1CCc2cc3cc(-n4ccc(OCc5ccc(OC)cc5)cc4=O)ccc3n2CC1 [Example 14, 1-{3-ethyl-1H,2H,3H,4H,5H-[1,4]diazepino[1,7-a]indol-9-yl}-4-[(4-methoxyphenyl)methoxy]-1,2-dihydropyridin-2-one] | 7.9 nM |
| O=c1cc(OCc2ccc(Cl)cn2)ccn1-c1ccc2c(c1)cc1n2CCN(CC2CC2)CC1 [Example 28, 4-[(5-chloropyridin-2-yl)methoxy]-1-[3-(cyclopropylmethyl)-1H,2H,3H,4H,5H-[1,4]diazepino[1,7-a]indol-9-yl]-1,2-dihydropyridin-2-ond maleic acid salt] | 6.2 nM |
| O=c1cc(OCc2ccc(Cl)cn2)ccn1-c1ccc2c(c1)cc1n2CCN(C2CC2)CC1 [Example 30, 4-[(5-chloropyridin-2-yl)methoxy]-1-{3-cyclopropyl-1H,2H,3H,4H,5H-[1,4]diazepino[1,7-a]indol-9-yl}-1,2-dihydropyridin-2-one maleic acid salt] | 17.2 nM |
| CN1CCc2cc3cc(-n4ccc(OCc5ccccc5)cc4=O)ccc3n2CC1 [Example 10, 4-(benzyloxy)-1-{3-methyl-1H,2H,3H,4H,5H-[1,4]diazepino[1,7-a]indol-9-yl}-1,2-dihydropyridin-2-one hydrochloride salt] | 9.2 nM |
| O=c1cc(OCc2ccc(C(F)(F)F)cc2)ccn1-c1ccc2c(c1)cc1n2CCNCC1 [Example 8, 1-{1H,2H,3H,4H,5H-[1,4]diazepino[1,7-a]indol-9-il}-4-{[4-(trifluoromethyl)phenyl]methoxy}-1,2-dihydropyridin-2-one hydrochloride salt] | 123 nM |
| CN1CCc2cc3cc(-n4ccc(OCc5ccc(F)cn5)cc4=O)ccc3n2CC1 [Example 9, 4-[(5-fluoropyridin-2-yl)methoxy]-1-{3-methyl-1H,2H,3H,4H,5H-[1,4]diazepino[1,7-a]indol-9-yl}-1,2-dihydropyridin-2-one maleic acid salt] | 14.9 nM |
| O=c1cc(OCc2ccc(F)cn2)ccn1-c1ccc2c(c1)cc1n2CCNCC1 [Example 1, 1-{1H,2H,3H,4H,5H-[1,4]diazepino[1,7-a]indol-9-yl}-4-[(5-fluoropyridin-2-yl)methoxy]-1,2-dihydropyridin-2-one hydrochloride salt] | 17.6 nM |
| CC(C)N1CCc2c(Br)c3cc(-n4ccc(OCc5ccc(Cl)cn5)cc4=O)ccc3n2CC1 [Example 25, 1-[11-bromo-3-(propan-2-yl)-1H,2H,3H,4H,5H-[1,4]diazepino[1,7-a]indol-9-yl]-4-[(5-chloropyridin-2-yl)methoxy]-1,2-dihydropyridin-2-one maleic acid salt] | 30.7 nM |
